Measurements taken from article PMC7112222, “Investigation of pyrimidine nucleoside analogues as chemical probes to assess compound effects on the proliferation of Trypanosoma cruzi intracellular parasites” (PLoS Neglected Tropical Diseases, 2020).
“And” between values parts separate entries of the source, which are not always exact repeats. Equal values may be shown once. Read-outs that look alike come from different tables or passages of the source.

Key:
HEK293 cells = assay: Redox-based assay to assess HEK293 viability; format: cell-based, human; conditions: Homo sapiens, HEK293, 48 hours exposure
Protocol: To determine the effect of the nucleoside analogues against a replicating mammalian cell line, analogues were tested against HEK293 cells, utilising a REDOX-based metabolic assay to assess cell viability as previously described. […] Experiments were performed over two biological replicates.

T. cruzi amastigote DNA = assay: Incorporation of pyrimidine nucleoside analogues into T. cruzi amastigote DNA (click chemistry, colocalisation with Hoechst); format: cell-based, Trypanosoma cruzi
Protocol: T. cruzi infected 3T3 fibroblasts were initially exposed to nucleoside analogues for 48 hours at concentrations ranging from 73 μM to 1.8 x10^-4 μM. Host cell, parasite and compound additions were carried out as previously described. Cells were then stained using a click chemistry azide cocktail, followed by Hoechst to identify nuclear material, as previously reported. The freshly prepared azide cocktail consisted of a final concentration of 5 μM of Alexa Fluor 488 azide (Thermo Fisher Scientific, USA), 1 mM copper sulfate (Sigma Aldrich, USA) and 100 mM sodium ascorbate (Sigma Aldrich, USA), in DPBS. Wells were imaged on an Opera image-based reader (Perkin Elmer, USA) at 20x magnification with 405 nm (defined as Hoechst channel) and 488 nm (defined as Alexa 488 channel) lasers using filter sets/bandwidth (emission) of 450/50 nm and 540/75 nm, respectively. To determine nucleoside analogue incorporation into T. cruzi amastigote DNA, a script was developed utilising the Columbus (PerkinElmer, USA) image-based analysis and data handling platform (CHEMICAL LABEL INCORPORATION SCRIPT). Nucleoside analogues were also tested for DNA incorporation following 2, 4 and 24 hours exposure, at the same concentrations. All experiments were performed in duplicate. The colocalisation of nucleoside analogues and Hoechst (replicating parasites) at each time point (48, 4 and 2 hours) was compared using GraphPad Prism 5.
A CHEMICAL LABEL INCORPORATION SCRIPT developed in Columbus firstly identified Hoechst stained parasites within host cells by spot analysis, utilizing the same building block analysis as we had previously developed to determine T. cruzi infected cells. The physical definition of amastigote DNA was identified by Hoechst, with the only modification being that as there was no cytoplasmic marker, thus segmentation borders in the Hoechst channel were applied, which effectively separated host cells (Fig 2). Further building blocks were added to calculate the intensity of Alexa Fluor 488 within the spots identified by Hoechst, in infected cells. This script was first applied to images to determine the mean fluorescence intensity in the Alexa 488 channel of Hoechst identified parasites, without the addition of the chemical label. The mean plus three times the standard deviation of this intensity was used to define values above background, thus the minimum intensity above background required to identify parasite DNA which successfully incorporated the chemical label. An input box was incorporated into the script, in which this minimum intensity above background was entered. Parameters of the developed script, “CHEMICAL LABEL INCORPORATION” are shown in S1 Table.
• Number of T. cruzi amastigote infected cells (≥5 parasites per cell, identified with Hoechst). • Number of Hoechst identified T. cruzi parasites (in infected cells). • Number of parasites incorporating chemical label (T. cruzi parasites with Alexa 488 intensity above background, in infected cells). • % chemical label incorporation. Alexa 488 spots in infected cells (above background) NO / Hoechst spots in infected cells NO *100 = Percentage colocalisation; where NO = number of objects. • Number of host cells.

[1] = test system: T. cruzi intracellular amastigotes; assay: Image-based assay of the number of T. cruzi infected cells (intracellular amastigotes in 3T3 host cells); format: cell-based, Trypanosoma cruzi; conditions: for IC50: highest test concentration 183 μM
Protocol: Parasites and host cells were maintained as outlined previously. Briefly, host 3T3 fibroblasts (ATCC, CCL-92) were grown in RPMI medium (Thermo Fisher Scientific, USA) with no phenol red, supplemented with 10% FBS (Thermo Fisher Scientific, USA) and incubated at 37°C in 5% CO2. Host cells were harvested at 70% confluency and were split every 2–3 days in 175 cm^2 flasks. 3T3 cells were cultured up to passage 7 as contact inhibition was reduced or lost at higher passages. Prior to infection with T. cruzi trypomastigotes, host cells were seeded at 1.2 x 10^6 cells in 75 cm^2 or 4 x 10^5 cells in 25 cm^2 flasks and grown for 24 hours before parasite addition. Parasites were added at a multiplicity of infection (MOI) of 10:1 and incubated for 24 hours before non-infected trypomastigotes were washed off the host cell bed with PBS supplemented with Ca^2+ and Mg^2+ (Thermo Fisher Scientific, USA). Incubation was continued for a further 3 days, until tissue culture trypomastigotes began to egress from host cells. Egressed parasites were used for assays or to continue the infective life cycle in vitro.
The activity of the nucleoside analogues against T. cruzi intracellular amastigotes following 24, 48 hours exposure and compound wash off, was determined using image-based techniques as previously described. Briefly, 14-point serial dilutions of the compounds in 100% DMSO were prepared and then further diluted in sterile water at a ratio of 1:21 compound: water. Five microliters of the diluted compounds were added to wells of T. cruzi infected host cells, using a MiniTrak compound handling device (Perkin Elmer, USA) with final concentrations in the plate ranging from 183 μM to 4.6 x 10^−4 μM. All experiments were performed with two separate biological replicates.
IC50 values for inhibitory activity of both the nucleoside analogues tested as DNA probes and known inhibitors tested to determine their effect on replication of T. cruzi were calculated in GraphPad Prism 5, using sigmoidal dose response with variable slope. […] The p-value for difference in the % activity at Emax concentrations for compounds with known activity (EdU identified parasites, compared to Hoechst identified parasites) against T. cruzi was determined using GraphPad Prism 5, using an unpaired student’s t-test. […] The Emax for each compound was at least two data points in from the beginning of the plateau of activity in the IC50 curve, as previously described.

C#Cc1cn([C@H]2C[C@H](O)[C@@H](CO)O2)c(=O)[nH]c1=O [EdU, 5-ethynyl-2′-deoxy-uridine]
IC50 (HEK293 cells; highest test concentration 87 μM, EdU value estimated, relative to Emax plateau of 57%): 670 ± 260 nM | Emax (HEK293 cells; read-out: plateau of activity (Emax) against HEK293 cells): 57% | % incorporation into T. cruzi DNA (T. cruzi amastigote DNA; 2 hours, 1.8 μM): 75 ± 3.6% | % of Hoechst defined T. cruzi cells with incorporation (T. cruzi amastigote DNA; 4 hours, 0.37 μM): 89 ± 4.8% | % of cells with incorporation (T. cruzi amastigote DNA; 48 hours exposure, 0.018 μM): 72 ± 1.09% | % of cells containing Alexa Fluor 488 labelled DNA (incorporation) (T. cruzi amastigote DNA; 48 hours exposure, 0.037 μM): 93.1 ± 2.8% | highest incorporation (T. cruzi amastigote DNA; 48 hours exposure, 0.073 μM): 94 ± 2.5% and 94% | incorporation into T. cruzi DNA following 48 hours incubation (in words) (T. cruzi amastigote DNA; 48 hours incubation): incorporated | SI (selectivity index to T. cruzi intracellular amastigotes in relation to HEK293 cells) ([1]; 48 hours exposure): 17 | inhibition at 0.018 µM ([1]; Trypanosoma cruzi, 48 h, 0.018 μM, 48 hours, read-out: inhibition of T. cruzi growth): 63 ± 19% | inhibition at 0.037 µM ([1]; Trypanosoma cruzi, 48 h, 0.037 μM, 48 hours, read-out: inhibition of T. cruzi growth): 51 ± 13% | IC50 ([1]; Trypanosoma cruzi, 24 hours exposure, read-out: T. cruzi 24 IC50 value): 73 ± 49 nM | Emax ([1]; Trypanosoma cruzi, 24 hours exposure, read-out: T. cruzi 24 relative Emax (in brackets) (converted)): 83% | IC50 ([1]; Trypanosoma cruzi, 48 hours incubation, compound wash off, further 72 hours without compound, read-out: T. cruzi Wash off IC50 value): 420 ± 61 nM | Emax ([1]; Trypanosoma cruzi, 48 hours incubation, wash off, further 72 hours without compound, read-out: T. cruzi Wash off relative Emax (in brackets) (converted)): 99% | IC50 ([1]; Trypanosoma cruzi, 48 hours incubation, read-out: T. cruzi 48 IC50 value): 40 ± 25 nM | Emax ([1]; Trypanosoma cruzi, 48 hours incubation, read-out: T. cruzi 48 relative Emax (in brackets) (converted)): 98%
